Experimental data reported in patent US7022667B2, “O-derivatized nocathiacin derivatives” (Bristol-Myers Squibb Company, priority 2002, dated 2006).
Converted amounts (≈) assume the structure as drawn.

Assays:
Experiment in all cases: MIC, broth micro dilution assay (NCCLS)
Format in all cases: cell-based
[1] = system: Enterococcus faecalis A20688; settings: Mueller-Hinton medium, 35° C., 18 hours
Description: (§1) The serial broth dilution method used Mueller-Hinton medium except for the Streptococcus pneumoniae which was tested in 50% Mueller-Hinton medium and 50% Todd Hewitt medium. The final bacterial inoculate contained approximately 5×10^5 cfu/well and was run on microtiter plates. The volume of each well was 100 μL and the plates were incubated at 35° C. for 18 hours in ambient air. The MIC was defined as the lowest drug concentration that prevented visible growth.

[2] = system: Staphylococcus aureus A15090; settings: Mueller-Hinton medium, 35° C., 18 hours
Description: as §1

[3] = system: Streptococcus pneumoniae A28272; settings: 50% Mueller-Hinton medium and 50% Todd Hewitt medium, 35° C., 18 hours
Description: as §1

Row | Compound | MIC (μg/mL) Enterococcus faecalis A20688 [1] | MIC (μg/mL) Staphylococcus aureus A15090 [2] | MIC (μg/mL) Streptococcus pneumoniae A28272 [3]
1 | COC(C)=C1NC(=O)C(C(C)O)NC(=O)c2csc(n2)-c2cc(O)c(-c3nc(C(N)=O)cs3)nc2-c2csc(n2)C2COC(=O)c3c4c5c(cccc5n3OCCCCS(=O)(=O)O)COC(=O)C(OC3CC(C)(O)C(N(C)C)C(C)O3)C(OC4)C(NC(=O)c3csc1n3)c1nc(cs1)C(=O)N2 (stereo not drawn) [Example 59] | >128 µg/mL | 16 µg/mL (≈ 10.6 µM) | 0.5 µg/mL (≈ 0.332 µM)
2 | C=C(NC(=O)c1csc(-c2nc3c(cc2OCC(O)CO)-c2nc(cs2)C(=O)NC(C(C)O)C(=O)NC(=C(C)OC)c2nc(cs2)C(=O)NC2c4nc(cs4)C(=O)NC(COC(=O)c4c5c6c(cccc6n4O)COC(=O)C(OC4CC(C)(O)C(N(C)C)C(C)O4)C2OC5)c2nc-3cs2)n1)C(N)=O (stereo not drawn) [Example 3] | 2.0 µg/mL (≈ 1.32 µM) | 1.0 µg/mL (≈ 0.662 µM) | 0.25 µg/mL (≈ 0.165 µM)
3 | C=C(NC(=O)c1csc(-c2nc3c(cc2OC(=O)c2ccc(Br)cc2)-c2nc(cs2)C(=O)NC(C(C)O)C(=O)NC(=C(C)OC)c2nc(cs2)C(=O)NC2c4nc(cs4)C(=O)NC(COC(=O)c4c5c6c(cccc6n4O)COC(=O)C(OC4CC(C)(O)C(N(C)C)C(C)O4)C2OC5)c2nc-3cs2)n1)C(N)=O (stereo not drawn) [Example 32] | 1.0 µg/mL (≈ 0.617 µM) | 1.0 µg/mL (≈ 0.617 µM) | 0.015 µg/mL (≈ 0.00926 µM)
4 | C#CCOc1cc2c(nc1-c1nc(C(=O)NC(=C)C(N)=O)cs1)-c1csc(n1)C1COC(=O)c3c4c5c(cccc5n3OCC#C)COC(=O)C(OC3CC(C)(O)C(N(C)C)C(C)O3)C(OC4)C(NC(=O)c3csc(n3)C(=C(C)OC)NC(=O)C(C(C)O)NC(=O)c3csc-2n3)c2nc(cs2)C(=O)N1 (stereo not drawn) [Example 75] | 0.06 µg/mL (≈ 0.0396 µM) | 0.03 µg/mL (≈ 0.0198 µM) | 0.0005 µg/mL (≈ 0.00033 µM)
5 | C=C(NC(=O)c1csc(-c2nc3c(cc2OP(=O)(O)OCCCl)-c2nc(cs2)C(=O)NC(C(C)O)C(=O)NC(=C(C)OC)c2nc(cs2)C(=O)NC2c4nc(cs4)C(=O)NC(COC(=O)c4c5c6c(cccc6n4OP(=O)(O)OCCCl)COC(=O)C(OC4CC(C)(O)C(N(C)C)C(C)O4)C2OC5)c2nc-3cs2)n1)C(N)=O (stereo not drawn) [Example 86] | 4.0 µg/mL (≈ 2.32 µM) | 4.0 µg/mL (≈ 2.32 µM) | 0.5 µg/mL (≈ 0.29 µM)
6 | C=C(NC(=O)c1csc(-c2nc3c(cc2O)-c2nc(cs2)C(=O)NC(C(C)O)C(=O)NC(=C(C)OC)c2nc(cs2)C(=O)NC2c4nc(cs4)C(=O)NC(COC(=O)c4c5c6c(cccc6n4OCCCNS(=O)(=O)N(C)C)COC(=O)C(OC4CC(C)(O)C(N(C)C)C(C)O4)C2OC5)c2nc-3cs2)n1)C(N)=O (stereo not drawn) [Example 49] | 0.25 µg/mL (≈ 0.156 µM) | 0.5 µg/mL (≈ 0.312 µM) | 0.007 µg/mL (≈ 0.00437 µM)
7 | C=C(NC(=O)c1csc(-c2nc3c(cc2O)-c2nc(cs2)C(=O)NC(C(C)O)C(=O)NC(=C(C)OC)c2nc(cs2)C(=O)NC2c4nc(cs4)C(=O)NC(COC(=O)c4c5c6c(cccc6n4OCC(=O)OC)COC(=O)C(OC4CC(C)(O)C(N(C)C)C(C)O4)C2OC5)c2nc-3cs2)n1)C(N)=O (stereo not drawn) [Example 37] | 0.06 µg/mL (≈ 0.0397 µM) | 0.03 µg/mL (≈ 0.0199 µM) | 0.001 µg/mL (≈ 0.000662 µM)
8 | C=C(NC(=O)c1csc(-c2nc3c(cc2OCc2ccccc2)-c2nc(cs2)C(=O)NC(C(C)O)C(=O)NC(=C(C)OC)c2nc(cs2)C(=O)NC2c4nc(cs4)C(=O)NC(COC(=O)c4c5c6c(cccc6n4OCc4ccccc4)COC(=O)C(OC4CC(C)(O)C(N(C)C)C(C)O4)C2OC5)c2nc-3cs2)n1)C(N)=O (stereo not drawn) [Example 66] | 0.25 µg/mL (≈ 0.155 µM) | 2.0 µg/mL (≈ 1.24 µM) | 0.001 µg/mL (≈ 0.000618 µM)
9 | C=C(NC(=O)c1csc(-c2nc3c(cc2OCOP(=O)([O-])O)-c2nc(cs2)C(=O)NC(C(C)O)C(=O)NC(=C(C)OC)c2nc(cs2)C(=O)NC2c4nc(cs4)C(=O)NC(COC(=O)c4c5c6c(cccc6n4OCOP(=O)([O-])O)COC(=O)C(OC4CC(C)(O)C(N(C)C)C(C)O4)C2OC5)c2nc-3cs2)n1)C(N)=O.[Na+].[Na+] (stereo not drawn) [Example 22] | 0.25 µg/mL | 0.125 µg/mL | 0.015 µg/mL
10 | C=C(NC(=O)c1csc(-c2nc3c(cc2O)-c2nc(cs2)C(=O)NC(C(C)O)C(=O)NC(=C(C)OC)c2nc(cs2)C(=O)NC2c4nc(cs4)C(=O)NC(COC(=O)c4c5c6c(cccc6n4OCCn4ccnc4)COC(=O)C(OC4CC(C)(O)C(N(C)C)C(C)O4)C2OC5)c2nc-3cs2)n1)C(N)=O (stereo not drawn) [Example 46] | 1.0 µg/mL (≈ 0.653 µM) | 0.5 µg/mL (≈ 0.326 µM) | 0.015 µg/mL (≈ 0.00979 µM)
11 | C=C(NC(=O)c1csc(-c2nc3c(cc2OCCCS(=O)(=O)[O-])-c2nc(cs2)C(=O)NC(C(C)O)C(=O)N/C(=C(\C)OC)c2nc(cs2)C(=O)NC2c4nc(cs4)C(=O)NC(COC(=O)c4c5c6c(cccc6n4O)COC(=O)C(OC4CC(C)(O)C(N(C)C)C(C)O4)C2OC5)c2nc-3cs2)n1)C(N)=O.[Na+] (stereo not drawn) [Example 28] | 32 µg/mL | 2.0 µg/mL | 0.25 µg/mL
12 | C=C(NC(=O)c1csc(-c2nc3c(cc2OCC(=O)NCCNC(=O)OC(C)(C)C)-c2nc(cs2)C(=O)NC(C(C)O)C(=O)NC(=C(C)OC)c2nc(cs2)C(=O)NC2c4nc(cs4)C(=O)NC(COC(=O)c4c5c6c(cccc6n4OCC(=O)NCCNC(=O)OC(C)(C)C)COC(=O)C(OC4CC(C)(O)C(N(C)C)C(C)O4)C2OC5)c2nc-3cs2)n1)C(N)=O (stereo not drawn) [Example 69] | 64 µg/mL (≈ 34.8 µM) | 16 µg/mL (≈ 8.7 µM) | 0.25 µg/mL (≈ 0.136 µM)
13 | C=C(NC(=O)c1csc(-c2nc3c(cc2O)-c2nc(cs2)C(=O)NC(C(C)O)C(=O)NC(=C(C)OC)c2nc(cs2)C(=O)NC2c4nc(cs4)C(=O)NC(COC(=O)c4c5c6c(cccc6n4OCOCC[Si](C)(C)C)COC(=O)C(OC4CC(C)(O)C(N(C)C)C(C)O4)C2OC5)c2nc-3cs2)n1)C(N)=O (stereo not drawn) [Example 45] | 1.0 µg/mL (≈ 0.638 µM) | 2.0 µg/mL (≈ 1.28 µM) | 0.03 µg/mL (≈ 0.0191 µM)
14 | C=C(NC(=O)c1csc(-c2nc3c(cc2O)-c2nc(cs2)C(=O)NC(C(C)O)C(=O)NC(=C(C)OC)c2nc(cs2)C(=O)NC2c4nc(cs4)C(=O)NC(COC(=O)c4c5c6c(cccc6n4OCCCNC(=N)N)COC(=O)C(OC4CC(C)(O)C(N(C)C)C(C)O4)C2OC5)c2nc-3cs2)n1)C(N)=O (stereo not drawn) [Example 48] | 2 µg/mL (≈ 1.3 µM) | 1.0 µg/mL (≈ 0.651 µM) | 0.03 µg/mL (≈ 0.0195 µM)
15 | C=C(NC(=O)c1csc(-c2nc3c(cc2OC(C)=O)-c2nc(cs2)C(=O)NC(C(C)O)C(=O)NC(=C(C)OC)c2nc(cs2)C(=O)NC2c4nc(cs4)C(=O)NC(COC(=O)c4c5c6c(cccc6n4O)COC(=O)C(OC4CC(C)(O)C(N(C)C)C(C)O4)C2OC5)c2nc-3cs2)n1)C(N)=O.Cl (stereo not drawn) [Example 24] | 0.015 µg/mL | 0.03 µg/mL | 0.03 µg/mL
16 | C=C(NC(=O)c1csc(-c2nc3c(cc2O)-c2nc(cs2)C(=O)NC(C(C)O)C(=O)NC(=C(C)OC)c2nc(cs2)C(=O)NC2c4nc(cs4)C(=O)NC(COC(=O)c4c5c6c(cccc6n4OCOP(=O)(OC(C)(C)C)OC(C)(C)C)COC(=O)C(OC4CC(C)(O)C(N(C)C)C(C)O4)C2OC5)c2nc-3cs2)n1)C(N)=O (stereo not drawn) [Example 40] | 0.25 µg/mL (≈ 0.151 µM) | 0.125 µg/mL (≈ 0.0753 µM) | 0.015 µg/mL (≈ 0.00904 µM)
17 | C=C(NC(=O)c1csc(-c2nc3c(cc2O)-c2nc(cs2)C(=O)NC(C(C)O)C(=O)NC(=C(C)OC)c2nc(cs2)C(=O)NC2c4nc(cs4)C(=O)NC(COC(=O)c4c5c6c(cccc6n4OCOP(=O)(OCC)OCC)COC(=O)C(OC4CC(C)(O)C(N(C)C)C(C)O4)C2OC5)c2nc-3cs2)n1)C(N)=O (stereo not drawn) [Example 41] | 0.03 µg/mL (≈ 0.0187 µM) | 0.015 µg/mL (≈ 0.00935 µM) | 0.001 µg/mL (≈ 0.000624 µM)
18 | C=C(NC(=O)c1csc(-c2nc3c(cc2O)-c2nc(cs2)C(=O)NC(C(C)O)C(=O)NC(=C(C)OC)c2nc(cs2)C(=O)NC2c4nc(cs4)C(=O)NC(COC(=O)c4c5c6c(cccc6n4OCC4OC6OC(C)(C)OC6C6OC(C)(C)OC46)COC(=O)C(OC4CC(C)(O)C(N(C)C)C(C)O4)C2OC5)c2nc-3cs2)n1)C(N)=O (stereo not drawn) [Example 38] | 0.03 µg/mL (≈ 0.0179 µM) | 0.125 µg/mL (≈ 0.0744 µM) | 0.001 µg/mL (≈ 0.000595 µM)
19 | C=C(NC(=O)c1csc(-c2nc3c(cc2O)-c2nc(cs2)C(=O)NC(C(C)O)C(=O)NC(=C(C)OC)c2nc(cs2)C(=O)NC2c4nc(cs4)C(=O)NC(COC(=O)c4c5c6c(cccc6n4OCCCOC4OC(CO)C(O)C(O)C4O)COC(=O)C(OC4CC(C)(O)C(N(C)C)C(C)O4)C2OC5)c2nc-3cs2)n1)C(N)=O (stereo not drawn) [Example 58] | >128 µg/mL | 16 µg/mL (≈ 9.65 µM) | 0.06 µg/mL (≈ 0.0362 µM)
20 | C=C(NC(=O)c1csc(-c2nc3c(cc2O)-c2nc(cs2)C(=O)NC(C(C)O)C(=O)NC(=C(C)OC)c2nc(cs2)C(=O)NC2c4nc(cs4)C(=O)NC(COC(=O)c4c5c6c(cccc6n4OCc4ccc(C(=O)OC6CCCCO6)cc4)COC(=O)C(OC4CC(C)(O)C(N(C)C)C(C)O4)C2OC5)c2nc-3cs2)n1)C(N)=O (stereo not drawn) [Example 10] | 0.5 µg/mL (≈ 0.302 µM) | 0.5 µg/mL (≈ 0.302 µM) | 0.015 µg/mL (≈ 0.00906 µM)
